Measured values reported in patent publication US12016858B2, “Methods for the treatment of abnormal involuntary movement disorders” (AUSPEX PHARMACEUTICALS, INC., priority 2015, dated 2024).
Read-outs that look alike come from different tables or passages of the source.

How the values were obtained:
[1] = tested on: subjects with moderate to severe drug-induced tardive dyskinesia (TD); assay: Open-label, single-arm long-term study in tardive dyskinesia; format: in vivo, human; settings: by Week 6
Experimental: An open-label, single-arm study in which male and female subjects with moderate to severe drug-induced tardive dyskinesia (TD) was conducted to evaluate the safety and tolerability of long-term maintenance therapy with deutetrabenazine, and to evaluate the efficacy of long-term maintenance therapy of deutetrabenazine to reduce the severity of abnormal involuntary movements of TD. Study Design. […] Dose Regimen. Deutetrabenazine tablets were provided in dosage strengths of 6, 9, 12, 15, and 18 mg. During dose adjustment/titration, deutetrabenazine was supplied in weekly blister cards. During long-term treatment, deutetrabenazine will be supplied in 30-count bottles. Study drug were administered as follows. All treatment regimens were administered twice daily (BID) with meals, approximately 10 hours apart during the day. […] If a subject experienced a clinically significant AE attributable to deutetrabenazine, the Investigator determined if a dose reduction or suspension was necessary. […] During titration, the investigator, in consultation with the subject determined when an adequate level of dyskinesia control had been achieved. […] If a subject experienced a clinically significant AE attributable to deutetrabenazine, the investigator determined if a dose reduction or suspension was necessary. […]

[2] = tested on: cardiac repolarization (QTcF interval); assay: TQT study, six-period crossover, placebo- and positive-controlled; format: in vivo, healthy volunteers; settings: for Maximum Placebo-Adjusted Change from Baseline in QTcF: fed
Experimental: Study Design. Given the known risk for tetrabenazine to increase the QT interval, a TQT study of deutetrabenazine, which included tetrabenazine as a treatment arm, was conducted in 48 healthy volunteers. This was a single-center, randomized, double-blind, placebo- and positive-controlled six-period crossover study to evaluate the effects of low-dose (12 mg) and high-dose (24 mg) deutetrabenazine on cardiac repolarization, based on placebo-corrected, time-matched changes from baseline in the QTcF interval. Assay sensitivity was established by using moxifloxacin 400 mg as the positive control.
The key outcome measure was to determine the effect of single doses of deutetrabenazine on the QTc interval.
In the table above, ΔΔQTcF is defined as the difference between the least squares mean change from baseline for the active drug and placebo. deutetrabenazine was compared with deutetrabenazine placebo (administered under fed conditions) and tetrabenazine was compared with tetrabenazine placebo (administered under fasted conditions). […] The upper limit of the 95% one-sided confidence interval is the upper limit of the 90% 2-sided confidence interval.

[3] = tested on: subjects with chorea associated with HD
Experimental: First-HD was a randomized, double-blind, placebo-controlled, parallel-group study designed to evaluate the efficacy, safety, and tolerability of deutetrabenazine in subjects with chorea associated with HD. This trial was conducted in the United States and Canada, in collaboration with the Huntington Study Group.
Subjects in First-HD were treated with deutetrabenazine or placebo, starting at 6 mg once per day and titrating weekly to doses of up to 24 mg twice per day (48 mg total maximum daily dose). A total of 90 subjects (45 in each group) were enrolled for evaluation over 13 weeks. Subjects were individually titrated to an optimal dose over up to eight weeks, received maintenance therapy at the optimal dose for four weeks, and were taken off study medication in the final week of the trial.
The primary efficacy endpoint for the study was the change from baseline to maintenance therapy (average of Week 9 and Week 12 values) in the maximal chorea score of the UHDRS. The total maximal score, or TMC, is a clinician-based, quantitative assessment of chorea in seven body regions: face, mouth/tongue, trunk, and the four extremities, with higher scores representing more severe chorea.
The total motor score (TMS) of the UHDRS was prespecified as an additional efficacy endpoint in First-HD. The TMS assesses all the motor features of HD, including items addressing characteristic motor abnormalities other than chorea, such as dystonia, gait, parkinsonism, and postural instability.
The clinical relevance of the change in the TMC score was assessed with four prespecified secondary endpoints that assessed changes from baseline to end of treatment (Week 12). These secondary endpoints were tested in a hierarchical manner: • 1. Treatment success based on patient global impression of change (PGIC); • 2. Treatment success based on clinical global impression of change (CGIC); • 3. Physical Functioning Scale of the SF-36; and • 4. Balance, as assessed by the Berg Balance Test (BBT).
The PGIC and CGIC are single-item questionnaires that ask the subject and investigator, respectively, to assess a subject's overall HD symptoms at specific visits after initiating therapy. Both assessments use a 7-point Likert Scale, with responses ranging from Very Much Worse (−3) to Very Much Improved (+3) to assess overall response to therapy.
Adverse events (AE) and their potential association with treatment were also monitored. Categories of AEs of particular focus included those known to be associated with tetrabenazine use: • Psychiatric disorders: insomnia, depression/agitated depression, abnormal dreams, agitation, anxiety, suicidal ideation, compulsions, impulsive behavior, and sleep disorders; • Nervous system disorders: somnolence, dizziness, akathisia/restlessness, cognitive disorders, drooling, dyskinesia, migraine, headache, loss of consciousness, and syncope (fainting); • General disorders: irritability, fatigue, gait disturbance, chest pain, and hangover; and • Gastrointestinal disorders: diarrhea, dry mouth, constipation, nausea, upper abdominal pain, dyspepsia, frequent bowel movements, gastrointestinal pain, vomiting, dysphagia, flatulence, and salivary hypersecretion.
In addition to AE reporting, rating scales were used to monitor for potential subclinical toxicity due to excessive monoamine depletion. […] These scales applied in First-HD included the Hospital Anxiety and Depression Scale (HADS), the Columbia Suicide Severity Rating Scale (C-SSRS), the Swallowing Disturbance Questionnaire (SDQ), the Unified Parkinson's Disease Rating Scale (dysarthria item) (UPDRS [dysarthria]), the Barnes Akathisia Rating Scale (BARS), and the Epworth Sleepiness Scale (ESS). In addition, the UHDRS, which includes cognitive, behavioral, and functional measures, was performed at key visits.

[4] = Baseline to Maintenance Therapy, N = 45
[5] = baseline to maintenance therapy
[6] = much or very much improved, Week 12, N = 45

[2H]C([2H])([2H])Oc1cc2c(cc1OC([2H])([2H])[2H])C1CC(=O)C(CC(C)C)CN1CC2 (stereo not drawn) [deutetrabenazine, (RR, SS)-1,3,4,6,7,11b-hexahydro-9,10-di(methoxy-d3)-3-(2-methylpropyl)-2H-benzo[a]quinolizin-2-one]
subjects much or very much improved according to PGIC and CGIC [1]: over 50%
Maximum Placebo-Adjusted Change from Baseline in QTcF ([2]; 12 mg single dose): 2.8 ms
Maximum Placebo-Adjusted Change from Baseline in QTcF ([2]; 24 mg single dose): 4.5 ms
time point at which the maximal ΔΔQTcF was observed ([2]; in vivo): 8 h
Absolute Change in Total Maximal Chorea Score, Least Squares Mean (SD) ([3]; Baseline to Maintenance Therapy (mean of Week 9 and Week 12), N = 45): −4.4 (3.0)
Percentage Change in Total Maximal Chorea Score, Least Squares Mean (SD) [3, 4]: −37 (25.7) %
Total Motor Score change, Least Squares Mean (SD) [3, 4]: −7.4 (6.3)
Absolute Change in Total Maximal Chorea Score, Difference in Means (DTBZ − Placebo and 95% CI) ([3]; Baseline to Maintenance Therapy, listed as DTBZ): −2.5 (−3.7, −1.3)
Change in BBT Score, Difference in Means (DTBZ-Placebo) ([3]; Baseline to Week 12): 1.0
Change in SF-36 Physical Functioning Score, Difference in Means (DTBZ − Placebo) and 95% CI ([3]; Baseline to Week 12): 4.3
SF-36 physical functioning score compared with placebo-treated subjects ([3]; Baseline to Week 12): greater improvement in physical function
Change in Berg Balance Test Score, Least Squares Mean ([3]; Baseline to Week 12, N = 45): 2.2
Change in SF-36 Physical Functioning Score, Least Squares Mean (SD) ([3]; Baseline to Week 12, N = 45): 0.74
Change in SF-36 Physical Functioning Score, Least Squares Mean (SD) ([3]; Baseline to Week 12, N = 45, listed as DTBZ): 0.74 (9.773)
Change in SF-36 Physical Functioning Score, Difference in Means (DTBZ − Placebo) and 95% CI ([3]; Baseline to Week 12, listed as DTBZ): 4.34 (0.41, 8.27)
CGIC Treatment Success, Difference in Percentages (DTBZ − Placebo) and 95% CI ([3]; End of Therapy): 29 (11.4, 46.4) %
PGIC Treatment Success, Difference in Percentages (DTBZ − Placebo) and 95% CI ([3]; End of Therapy): 31 (12.4, 49.8) %
Any Nervous System Disorders TEAE ([3]; N = 45): 8 (17.8) n (%)
Any Psychiatric Disorders TEAE ([3]; N = 45): 8 (17.8) n (%)
Any Serious TEAEs ([3]; N = 45): 1 (2.2) n (%)
Any TEAE that led to Withdrawal from the Study ([3]; N = 45): 1 (2.2) n (%)
Any TEAEs Resulting in Dose Reduction ([3]; N = 45): 3 (6.7) n (%)
Any TEAEs Resulting in Dose Suspension ([3]; N = 45): 1 (2.2) n (%)
Any Treatment-Emergent AEs (TEAEs) ([3]; N = 45): 60.0 n (%)
TEAE Abdominal pain upper ([3]; N = 45): 1 (2.2) n (%)
TEAE Abnormal Dreams ([3]; N = 45): 1 (2.2) n (%)
TEAE Agitation ([3]; N = 45): 1 (2.2) n (%)
TEAE Akathisia/Restlessness ([3]; N = 45): 1 (2.2) n (%)
TEAE Anxiety ([3]; N = 45): 1 (2.2) n (%)
TEAE Chest pain ([3]; N = 45): 1 (2.2) n (%)
TEAE Cognitive Disorder ([3]; N = 45): 1 (2.2) n (%)
TEAE Compulsions ([3]; N = 45): 0 n (%)
TEAE Constipation ([3]; N = 45): 2 (4.4) n (%)
TEAE Depression/Agitated Depression ([3]; N = 45): 2 (4.4) n (%)
TEAE Diarrhea ([3]; N = 45): 4 (8.9) n (%)
TEAE Dizziness ([3]; N = 45): 2 (4.4) n (%)
TEAE Drooling ([3]; N = 45): 1 (2.2) n (%)
TEAE Dry mouth ([3]; N = 45): 4 (8.9) n (%)
TEAE Dyskinesia ([3]; N = 45): 1 (2.2) n (%)
TEAE Dyspepsia ([3]; N = 45): 1 (2.2) n (%)
TEAE Dysphagia ([3]; N = 45): 0 n (%)
TEAE Fatigue ([3]; N = 45): 3 (6.7) n (%)
TEAE Flatulence ([3]; N = 45): 0 n (%)
TEAE Frequent bowel movements ([3]; N = 45): 1 (2.2) n (%)
TEAE Gait disturbance ([3]; N = 45): 1 (2.2) n (%)
TEAE Gastrointestinal pain ([3]; N = 45): 1 (2.2) n (%)
TEAE Hangover ([3]; N = 45): 1 (2.2) n (%)
TEAE Headache ([3]; N = 45): 0 n (%)
TEAE Impulsive Behavior ([3]; N = 45): 0 n (%)
TEAE Insomnia ([3]; N = 45): 3 (6.7) n (%)
TEAE Irritability ([3]; N = 45): 3 (6.7) n (%)
TEAE Loss of Consciousness ([3]; N = 45): 0 n (%)
TEAE Migraine ([3]; N = 45): 1 (2.2) n (%)
TEAE Nausea ([3]; N = 45): 1 (2.2) n (%)
TEAE Salivary hypersecretion ([3]; N = 45): 0 n (%)
TEAE Sleep disorder ([3]; N = 45): 0 n (%)
TEAE Somnolence ([3]; N = 45): 11.1 n (%)
TEAE Suicidal Ideation ([3]; N = 45): 1 (2.2) n (%)
TEAE Syncope ([3]; N = 45): 0 n (%)
TEAE Vomiting ([3]; N = 45): 0 n (%)
Any Treatment-Emergent AEs (TEAEs) ([3]; N = 45, listed as DTBZ): 27 (60.0) n (%)
TEAE Somnolence ([3]; N = 45, listed as DTBZ): 5 (11.1) n (%)
Absolute Change in Total Maximal Chorea Score, Difference in Means (DTBZ − Placebo and 95% CI) [3, 5]: −2.5
Percentage Change in Total Maximal Chorea Score, Difference in Means (DTBZ − Placebo and 95% CI) [3, 5]: −21 (−30.5, −11.1) %
TMC improved [3, 5]: 37%
Total Motor Score change, Difference in Means (DTBZ − Placebo) and 95% CI [3, 5]: −4.0 (−6.5, −1.5)
improvement in the TMS compared with placebo [3, 5]: 4.0 units
reduction in maximal chorea compared with placebo [3, 5]: 21 percentage points
reduction on the TMC score compared with placebo [3, 5]: 2.5 units
total maximal dystonia score improvement [3, 5]: 0.9 (SE 0.24) points
UHDRS Behavioral Assessment (Part III) mean total behavior score compared with the placebo group ([3]; difference did not achieve statistical significance): improvement in the in the mean total behavior score
AEs of parkinsonism or dysphagia ([3]; in vivo): no AEs of parkinsonism or dysphagia were reported
balance (Berg Balance Test) at end of treatment ([3]; in vivo): did not worsen balance
changes in the parkinsonism subscore (UHDRS motor) vs placebo ([3]; in vivo): no significant difference
hypotension, dizziness, or orthostasis (vital signs) ([3]; in vivo): no evidence that hypotension, dizziness, or orthostasis was associated
parkinsonism subscore of the UHDRS Motor Assessment (Part I) ([3]; in vivo): did not identify evidence of parkinsonism
safety scales (HADS, C-SSRS, UPDRS dysarthria, BARS, ESS) ([3]; in vivo): did not cause depression, anxiety, suicidality, akathisia, somnolence, or difficulty speaking
somnolence, drug-placebo difference ([3]; in vivo): 6.7%
tolerability ([3]; in vivo): generally well tolerated
Clinical Global Impression of Change: Treatment Success at the End of Therapy [3, 6]: 42%
Patient Global Impression of Change: Treatment Success at the End of Therapy [3, 6]: 51%
SF-36 physical functioning mean improvement over placebo ([3]; subjects with more severe chorea at baseline (TMC>12; n=49)): 7.1 units
